Measurements taken from EP2581085A1, “Pharmaceutical composition for nasal administration of metopimazine” (priority 2011, dated 2013).
Read-outs that look alike come from different tables or passages of the source.

Legend:
[1] = Local tolerance study in rabbit, nasal administration for 7 days, histology of the anatomical piece; type: in vivo, lapin; set-up: key: Non renseigné : absent ou négligeable; +: faible intensité; ++: Intensité modérée; +++: Intensité marquée; settings: 7 days of Formule 1 200µLx3/J
Experimental: La tolérance a été étudiée chez le lapin après administration de 2mg de Formule 1 X3/j pendant 7 jours. Chaque lapin était son propre contrôle, puisqu'une narine recevait le Vogalène pendant que la seconde recevait une solution de sérum physiologique. Après l'exposition, les lapins sont sacrifiés afin de récupérer et d'étudier la pièce anatomique.

[2] = Pharmacokinetic study in rabbit after nasal or IV administration (plasma MPZ and AMPZ by HPLC with fluorescence detection); type: in vivo, lapin
Experimental: Le passage par voie nasale de la métopimazine a été caractérisé chez l'animal dans un modèle de référence qu'est le lapin. Les lapins utilisés étaient des femelles de race néozélandaises provenant de chez Charles River (poids 3,5 kg). La formulation testée chez le lapin a été la suivante: • Formule 1 : • Métopimazine : 10mg • NaCl : QSP 300mOsm • Tampon Citrate : QSP pH 5.5 • Eau : QSP 1ml
La posologie administrée au lapin a été calculée à partir de la dose pédiatrique soit 1 mg / kg / jour en 3 prises. Le poids des lapins étant de 3,5 kg, la dose par prise est d'environ 1 mg. La dose est donc administrée par instillation de 50 µl dans chaque narine d'une solution à 10 mg/ml.
Avant toute manipulation, le lapin est placé dans des cages de contention. Un cathéter est introduit sur chaque oreille du lapin au niveau de la veine marginale et d'une artère. Le cathéter veineux a permis d'injecter le soluté de remplissage (sérum physiologique) et le cathéter artériel a servi aux différents prélèvements sanguins tout au long de la manipulation. Les prélèvements ont été réalisés à temps réguliers : 0, 5, 10, 20, 30, 60, 120, 240 et 480 minutes. La préparation est administrée aux lapins en position supinale. Les lapins sont être maintenus dans cette position au moins 5 minutes après administration pour assurer le contact entre l'épithélium et la formulation. La solution nasale est administrée par instillation d'un volume de 50µL avec une micropipette dans chaque narine du lapin. Le volume du prélèvement est d'environ 3 mL. Après 2 h, les lapins sont placés dans leur cage avec un libre accès à la nourriture et à l'eau dans l'attente des prélèvements suivants. Le dosage est réalisé par CLHP avec détection par fluorescence en utilisant la méthode décrite par Angelo et al. J of Chrom, 496; 472-477, (1989). L'appareil de dosage est constitué d'une pompe Jasco, d'un injecteur Kontron et d'un détecteur de fluorescence Varian Prostar.
L'étude pharmacocinétique a été conduite sur le logiciel PK Solutions 2.
La formule 1 a été comparée à la voie IV. La métopimazine a été administrée dans la veine marginale de l'oreille. Les concentrations plasmatiques de la MPZ et l'AMPZ sont représentées également dans la figure 2.
Selon le même protocole, une autre formulation a été testée. • Formule 2 : • Métopimazine : 10mg • DMβCD : 21mg • NaCl : QSP 300mOsm • Tampon Citrate : QSP pH 5.5 • Eau : QSP 1ml

[3] = hepatic first-pass effect, cited from earlier work
[4] = sampling 14h after last administration, one rabbit and one sample (A-D)
[5] = sampling 70h after last administration, each column = one rabbit and one sample (A-C)
[6] = MPZ in plasma after IV administration of métopimazine, lapin, n=2

CS(=O)(=O)c1ccc2c(c1)N(CCCN1CCC(C(N)=O)CC1)c1ccccc1S2 [MPZ, métopimazine]
Hyperplasie des cellules de réserve [1, 4]: + | Inflammation dans le chorion [1, 4]: + | Perte des cellules caliciformes [1, 4]: + | Hyperplasie des cellules de réserve [1, 5]: + and ++ | Inflammation épithéliale [1, 5]: + and + avec eosinophiles et lymphocytes | Perte des cellules caliciformes [1, 5]: +++ and + and ++ | Perte des cils [1, 5]: +++ and + and ++ | t max ([2]; MPZ in plasma after IV administration of métopimazine (veine marginale de l'oreille), lapin, n=2, read-out: t max (converted)): 5 min | Cmax [2, 6]: 17.4 ng/mL | half-life [2, 6]: 72 min | AUC ([2]; MPZ in plasma after IV administration of métopimazine, lapin, n=2, read-out: AUC (converted)): 23.4 ng·h/mL | t max ([2]; MPZ in plasma after nasal administration, 50 µl in each nostril of a 10 mg/ml solution (about 1 mg), lapin, n=2, read-out: t max (converted)): 5 min | Cmax ([2]; MPZ in plasma after nasal administration, about 1 mg, lapin, n=2): 9.2 ng/mL | bioavailability ([2]; plasma, 1 mg, lapin, nasal route compared with IV, b45 = formulation tested (Formule 1), b50 = Formule 2, read-out: biodisponibilité de la MPZ par voie nasale): ~50% | biodisponibilité par voie orale ([3]; oral route): 22,3% | biodisponibilité par voie rectale ([3]; rectal route): 19,5%

CS(=O)(=O)c1ccc2c(c1)N(CCCN1CCC(C(=O)O)CC1)c1ccccc1S2 [AMPZ, acide de métopimazine]
t max ([2]; in vivo): 10 min | AUC ([2]; in vivo, iv): 5765 ng/mL/min | C max ([2]; in vivo, iv): 40 ng/mL | T1/2 ([2]; in vivo, iv): 105 min | t max ([2]; in vivo, iv): 20 min
